The results in this text go back to PubChem BioAssay (NCI).

Where “and” joins values, the source holds several entries; their conditions need not be identical. Equal entries are not always repeated.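 Test compounds were applied to cells in 96-well plates for 48 hours at 5 doses. GI50 = concentration required for 50% inhibition of growth. At the TGI there is no net growth.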

Among the test systems are BT-549 breast; DU-145 prostate; HCC-2998 colon; HS 578T breast; M14 melanoma; NCI-H23 lung; NCI-H522 lung; NCI/ADR-RES ovarian; OVCAR-8 ovarian; RXF 393 renal.
Holding throughout (experiment): growth of human tumour cells (NCI), 48 h

With `CCN(CC)CCCCCCNc1cccc2cc(Br)cnc12`, the GI50 in the assay on BT-549 breast is 10.1 µM; in the assay with DU-145 prostate, 12.7 µM; in the assay with HCC-2998 colon, 3.84 µM; with HS 578T breast, 6.03 µM; in the assay on M14 melanoma, 2.05 µM; in the assay on NCI-H23 lung it was 5.89 µM. The GI50 with NCI-H522 lung is 1.88 µM; in the assay on NCI/ADR-RES ovarian, 4.88 µM; in the assay on OVCAR-8 ovarian, 10.1 µM; in the assay with RXF 393 renal it was 4.52 µM. Further, the TGI in the assay on BT-549 breast came to 22.2 µM; with DU-145 prostate it was 26.4 µM; in the assay with HCC-2998 colon it was 15.4 µM; in the assay on HS 578T breast, 28.5 µM; in the assay on M14 melanoma it was 3.93 µM; in the assay with NCI-H23 lung, 20.7 µM. Also, the TGI stood at 4.97 µM in the assay on NCI-H522 lung, 20.3 µM with NCI/ADR-RES ovarian, 23.9 µM in the assay on OVCAR-8 ovarian and 15.1 µM in the assay with RXF 393 renal.
On to `C=CC(=O)N1CN(C(=O)C=C)CN(C(=O)C=C)C1`, for which the GI50 was 6.68 µM in the assay on BT-549 breast; 10.7 µM in the assay on DU-145 prostate; 10.2 µM in the assay on HCC-2998 colon; greater than 100 µM in the assay with HS 578T breast; 2.85 µM in the assay with M14 melanoma; 2.77 µM in the assay on NCI-H23 lung. Besides, the GI50 is 1.65 µM in the assay with NCI-H522 lung, 6.81 µM in the assay on NCI/ADR-RES ovarian, 2.93 µM with OVCAR-8 ovarian and 1.33 µM with RXF 393 renal. The TGI in the assay with BT-549 breast is 20.7 µM; in the assay with DU-145 prostate, 29 µM; with HCC-2998 colon, 25.3 µM; in the assay with HS 578T breast it was greater than 100 µM; in the assay with M14 melanoma, 7.86 µM; with NCI-H23 lung it was 9.15 µM. Also, the TGI in the assay on NCI-H522 lung is 3.51 µM; with NCI/ADR-RES ovarian, greater than 100 µM; in the assay with OVCAR-8 ovarian, greater than 100 µM; in the assay on RXF 393 renal, 2.83 µM.
Take `Nc1cc2c(cc1Br)[nH]c(=O)c1ccccc12`: the GI50 with BT-549 breast is 12.3 µM; with DU-145 prostate, 2.14 µM; with HCC-2998 colon, 5.5 µM; with HS 578T breast, 3.5 µM; in the assay with M14 melanoma, 2.92 µM; in the assay on NCI-H23 lung, 1.8 µM. Besides, the GI50 in the assay on NCI-H522 lung is 5.47 µM; in the assay on NCI/ADR-RES ovarian it was 9.25 µM; in the assay with OVCAR-8 ovarian, 3.37 µM; in the assay on RXF 393 renal it was 4.3 µM. The TGI in the assay with BT-549 breast turned out to be 31.4 µM; in the assay with DU-145 prostate it was 4.76 µM; in the assay with HCC-2998 colon it was 17.1 µM; with HS 578T breast it was 28.9 µM; in the assay with M14 melanoma it was 10 µM; in the assay with NCI-H23 lung, 5.29 µM. Besides, the TGI in the assay on NCI-H522 lung is 19.8 µM; in the assay on NCI/ADR-RES ovarian it was 35.1 µM; in the assay on OVCAR-8 ovarian, greater than 100 µM; in the assay with RXF 393 renal, 21.7 µM.
In the case of `NNCCc1ccc(NC(=O)CCCc2ccc(C(=O)Nc3ccccc3N)cc2)cc1`, the GI50 with BT-549 breast is 9.5 µM; with DU-145 prostate it was 14.5 µM; with HCC-2998 colon, 18 µM; with HS 578T breast, 37.8 µM; in the assay on M14 melanoma it was 15.2 µM; with NCI-H23 lung, 21 µM. Besides, the GI50 in the assay with NCI-H522 lung was 8.13 µM; in the assay on NCI/ADR-RES ovarian, 21.6 µM; in the assay on OVCAR-8 ovarian, 8.52 µM; in the assay with RXF 393 renal, 12.6 µM. In addition, the TGI with BT-549 breast, with DU-145 prostate, with HCC-2998 colon, in the assay on HS 578T breast, in the assay with M14 melanoma and in the assay on NCI-H23 lung was greater than 100 µM each time. Further, the TGI was greater than 100 µM in the assay with NCI-H522 lung, greater than 100 µM in the assay with NCI/ADR-RES ovarian, greater than 100 µM in the assay with OVCAR-8 ovarian and 53.9 µM in the assay with RXF 393 renal.
For `CN(C)C(=S)SSC(=S)N(C)C`, the TGI in the assay on BT-549 breast was 30.6 µM and 31.3 µM and 28.4 µM; with DU-145 prostate it was 52.4 µM and > 100 µM; in the assay with HCC-2998 colon, > 100 µM and 38 µM; in the assay on HS 578T breast, 40.9 µM and > 100 µM and > 90.6 µM; with M14 melanoma, 30 µM and > 61.7 µM and > 51.3 µM; in the assay on NCI-H23 lung, 64.9 µM and 14.3 µM and 43.7 µM. For the same compound, the TGI in the assay with NCI-H522 lung was 14.7 µM and 10.4 µM and 8.24 µM; in the assay on NCI/ADR-RES ovarian, 30.4 µM and 36 µM; in the assay with OVCAR-8 ovarian it was 30.5 µM and 65.8 µM and 36.1 µM; in the assay on RXF 393 renal it was 31 µM and > 62.6 µM and 32.6 µM. Moreover, the GI50 is 20.6 µM in the assay with DU-145 prostate; 38.3 µM in the assay on HCC-2998 colon; 15.2 µM and > 100 µM and 45 µM with HS 578T breast; 14.4 µM in the assay with M14 melanoma; 21.5 µM and 4.49 µM and 21 µM in the assay on NCI-H23 lung; 15.8 µM and 5.61 µM and 16.4 µM with OVCAR-8 ovarian. The GI50 in the assay on RXF 393 renal was 16.5 µM and 38.6 µM and 16.6 µM.
As for `COc1ccc(-c2cnnn2-c2nonc2-n2cccc2)cc1`, the GI50 was 0.698 µM with BT-549 breast; 0.342 µM in the assay with DU-145 prostate; 0.235 µM in the assay on HCC-2998 colon; 0.239 µM with HS 578T breast; 0.209 µM in the assay with M14 melanoma; 0.246 µM with NCI-H23 lung. Further, the GI50 in the assay with NCI-H522 lung was 0.136 µM; with NCI/ADR-RES ovarian it was 0.102 µM; in the assay on OVCAR-8 ovarian, 0.425 µM; in the assay on RXF 393 renal, 0.138 µM. Also, the TGI with BT-549 breast is 34.6 µM; in the assay with DU-145 prostate, 2.62 µM; in the assay with HCC-2998 colon, 2.89 µM; in the assay on HS 578T breast it was 2.13 µM; in the assay with M14 melanoma, 6.62 µM; in the assay on NCI-H23 lung, 5.82 µM. The TGI with NCI-H522 lung stood at 0.487 µM; with NCI/ADR-RES ovarian, 0.67 µM; in the assay with OVCAR-8 ovarian, 18.9 µM; with RXF 393 renal, 0.609 µM.
Consider `CC(C)CC(C/C=C1/CC(CO)(COC(=O)C(C)(C)C)OC1=O)CC(C)C` (stereo not drawn), for which the TGI was 24.6 µM and 31 µM in the assay with BT-549 breast; 49.2 µM and 11.5 µM with DU-145 prostate; 5.37 µM and 6.13 µM in the assay with HCC-2998 colon; 24.2 µM and 14.7 µM in the assay on HS 578T breast; 28 µM and 26.2 µM in the assay on M14 melanoma; 23.4 µM and 24.4 µM in the assay with NCI-H23 lung. In addition, the TGI in the assay on NCI-H522 lung is 30 µM and 27 µM; in the assay on NCI/ADR-RES ovarian, 35.3 µM and 29.7 µM; in the assay with OVCAR-8 ovarian it was 32.9 µM and 38.7 µM; with RXF 393 renal, 43.8 µM and 32.9 µM. The GI50 with DU-145 prostate is 20.2 µM.
Take `O=C1Nc2ccccc2/C1=C1\CCc2cc(O)ccc21`: the GI50 in the assay with BT-549 breast was 8.47 µM; in the assay with DU-145 prostate, 11.4 µM; in the assay on HCC-2998 colon, 9.41 µM; in the assay on HS 578T breast, 7.12 µM; in the assay with M14 melanoma, 7.18 µM; in the assay with NCI-H23 lung, 7.07 µM. The GI50 is 9.85 µM with NCI-H522 lung, 7.65 µM with NCI/ADR-RES ovarian, 10.4 µM in the assay with OVCAR-8 ovarian and 9.85 µM with RXF 393 renal. The TGI in the assay with BT-549 breast is greater than 24.2 µM; in the assay on DU-145 prostate, greater than 25 µM; with HCC-2998 colon it was greater than 25 µM; in the assay on HS 578T breast, greater than 25 µM; with M14 melanoma, greater than 25 µM; in the assay on NCI-H23 lung it was greater than 25 µM. Also, the TGI in the assay with NCI-H522 lung, in the assay with NCI/ADR-RES ovarian, in the assay on OVCAR-8 ovarian and in the assay on RXF 393 renal was greater than 25 µM each time.
